Data: PubChem BioAssay AID256 (DTP/NCI, 2004)
Where “and” joins values, the source holds several entries; their conditions need not be identical. Equal values may be shown once. Toxic doses and inconclusive results are not listed. The calls were made as follows: active = survival T/C of 150% or more; inactive = T/C below 125% in these data.

Test system: CD2F1 mice, L1210 leukemia ip, survival T/C
Experiment: NCI In Vivo Anticancer Drug Screen. Data for tumor model L1210 Leukemia (intraperitoneal) in CD2F1 (CDF1) mice
Settings: higher = longer survival
Method in brief: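 Mice carrying a transplanted tumor received test compound or vehicle alone. The value is the measurement in the treated group divided by that in the vehicle-treated control group.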

[1] = endpoint: mean survival time, dose: 100.0 mg/kg/injection, schedule: Q01DX009 (ip), vehicle: saline with Tween-80
[2] = endpoint: mean survival time, dose: 100.0 mg/kg/injection, schedule: Q04DX003 (ip), vehicle: saline with Tween-80
[3] = endpoint: mean survival time, dose: 200.0 mg/kg/injection, schedule: Q01DX009 (ip), vehicle: saline with Tween-80
[4] = endpoint: mean survival time, dose: 200.0 mg/kg/injection, schedule: Q04DX003 (ip), vehicle: saline with Tween-80
[5] = endpoint: mean survival time, dose: 400.0 mg/kg/injection, schedule: Q04DX003 (ip), vehicle: saline with Tween-80
[6] = endpoint: mean survival time, dose: 50.0 mg/kg/injection, schedule: Q01DX009 (ip), vehicle: saline with Tween-80
[7] = endpoint: mean survival time, dose: 400.0 mg/kg/injection, schedule: Q01DX009 (ip), vehicle: saline with Tween-80

Measured: T/C

CC(=O)NC1=CC(=Nc2ccc(N(C)C)cc2)C=CC1=O
inactive: endpoint: mean survival time, dose: 1.25 mg/kg/injection, schedule: Q01DX009 (ip), vehicle: suspension in saline 95 % of control and 97 % of control | endpoint: mean survival time, dose: 2.5 mg/kg/injection, schedule: Q01DX009 (ip), vehicle: suspension in saline 95 % of control and 103 % of control | endpoint: mean survival time, dose: 5.0 mg/kg/injection, schedule: Q01DX009 (ip), vehicle: suspension in saline 97 % of control and 101 % of control | endpoint: mean survival time, dose: 10.0 mg/kg/injection, schedule: Q01DX009 (ip), vehicle: suspension in saline 90 % of control and 97 % of control

Cc1cn(C2CC(OP(=O)(O)OCC3OC(n4ccc(N)nc4=O)C(O)C3O)C(CO)O2)c(=O)[nH]c1=O (stereo not drawn)
inactive: endpoint: median survival time, dose: 5.0 mg/kg/injection, schedule: Q01DX005 (ip), vehicle: saline 107 % of control | endpoint: median survival time, dose: 10.0 mg/kg/injection, schedule: Q01DX005 (ip), vehicle: saline 117 % of control | endpoint: median survival time, dose: 25.0 mg/kg/injection, schedule: Q01DX005 (ip), vehicle: saline 122 % of control

O=C1C(c2ccccc2)=S=C2Sc3ccccc3N12
inactive: endpoint: mean survival time, dose: 100.0 mg/kg/injection, schedule: Q04DX003 (ip), vehicle: Klucel (hydroxypropylcellulose) (HPC) 102 % of control | endpoint: mean survival time, dose: 200.0 mg/kg/injection, schedule: Q04DX003 (ip), vehicle: Klucel (hydroxypropylcellulose) (HPC) 103 % of control | endpoint: mean survival time, dose: 400.0 mg/kg/injection, schedule: Q04DX003 (ip), vehicle: Klucel (hydroxypropylcellulose) (HPC) 96 % of control

CC1(C)OCCCO1
inactive: endpoint: mean survival time, dose: 25.0 mg/kg/injection, schedule: Q04DX002 (ip), vehicle: saline 104 % of control | endpoint: mean survival time, dose: 50.0 mg/kg/injection, schedule: Q04DX002 (ip), vehicle: saline 96 % of control | endpoint: mean survival time, dose: 100.0 mg/kg/injection, schedule: Q04DX002 (ip), vehicle: saline 100 % of control

CCCCCCCC/C=C\CCCCCCCC(=O)OCCCCCCCC
inactive: endpoint: mean survival time, dose: 100.0 mg/kg/injection, schedule: Q04DX002 (ip), vehicle: saline with Tween-80 95 % of control | endpoint: mean survival time, dose: 200.0 mg/kg/injection, schedule: Q04DX002 (ip), vehicle: saline with Tween-80 95 % of control | endpoint: mean survival time, dose: 400.0 mg/kg/injection, schedule: Q04DX002 (ip), vehicle: saline with Tween-80 102 % of control

CN1CC(=O)NC1=S
inactive: endpoint: mean survival time, dose: 100.0 mg/kg/injection, schedule: Q01DX001 (ip), vehicle: saline 87 % of control

CCOC(CN(N=O)c1ccccc1C(C)C)OCC
inactive: [1] 98 % of control | [2] 103 % of control | [3] 93 % of control | [4] 98 % of control | [5] 97 % of control

CC([NH-])Cc1ccccc1.CC([NH-])Cc1ccccc1.[Cl][Pt+2][Cl] (stereo not drawn)
inactive: endpoint: mean survival time, dose: 3.13 mg/kg/injection, schedule: Q04DX003 (ip), vehicle: distilled water + Tween-80 96 % of control | endpoint: mean survival time, dose: 6.25 mg/kg/injection, schedule: Q04DX003 (ip), vehicle: distilled water + Tween-80 96 % of control | endpoint: mean survival time, dose: 12.5 mg/kg/injection, schedule: Q04DX003 (ip), vehicle: distilled water + Tween-80 96 % of control | endpoint: mean survival time, dose: 25.0 mg/kg/injection, schedule: Q04DX003 (ip), vehicle: distilled water + Tween-80 86 % of control | endpoint: mean survival time, dose: 50.0 mg/kg/injection, schedule: Q04DX003 (ip), vehicle: distilled water + Tween-80 86 % of control | endpoint: mean survival time, dose: 100.0 mg/kg/injection, schedule: Q04DX003 (ip), vehicle: distilled water + Tween-80 96 % of control | endpoint: mean survival time, dose: 200.0 mg/kg/injection, schedule: Q04DX003 (ip), vehicle: distilled water + Tween-80 89 % of control

Nc1ccc(C(O)(C(F)(F)F)C(F)(F)F)c(C(=O)O)c1
inactive: endpoint: mean survival time, dose: 100.0 mg/kg/injection, schedule: Q01DX009 (ip), vehicle: other 106 % of control | endpoint: mean survival time, dose: 200.0 mg/kg/injection, schedule: Q01DX009 (ip), vehicle: other 106 % of control | endpoint: mean survival time, dose: 400.0 mg/kg/injection, schedule: Q01DX009 (ip), vehicle: other 102 % of control

CCOC(=O)CN1CCC2CC1c1c([nH]c3ccccc13)C2c1cc2c(cc1OC)N(C)C1C(O)(C(=O)OC)C(OC(C)=O)C3(CC)C=CCN4CCC21C43 (stereo not drawn)
inactive: endpoint: mean survival time, dose: 0.06 mg/kg/injection, schedule: Q01DX009 (ip), vehicle: other 87 % of control | endpoint: mean survival time, dose: 0.13 mg/kg/injection, schedule: Q01DX009 (ip), vehicle: other 97 % of control | endpoint: mean survival time, dose: 0.25 mg/kg/injection, schedule: Q01DX009 (ip), vehicle: other 92 % of control | endpoint: mean survival time, dose: 0.5 mg/kg/injection, schedule: Q01DX009 (ip), vehicle: other 92 % of control | endpoint: mean survival time, dose: 1.0 mg/kg/injection, schedule: Q01DX009 (ip), vehicle: other 97 % of control | endpoint: mean survival time, dose: 2.0 mg/kg/injection, schedule: Q01DX009 (ip), vehicle: other 90 % of control

CCOC(=O)/C(N=O)=C(/C)O
inactive: endpoint: mean survival time, dose: 100.0 mg/kg/injection, schedule: Q01DX009 (ip), vehicle: saline 96 % of control | endpoint: mean survival time, dose: 200.0 mg/kg/injection, schedule: Q01DX009 (ip), vehicle: saline 101 % of control | endpoint: mean survival time, dose: 400.0 mg/kg/injection, schedule: Q01DX009 (ip), vehicle: saline 110 % of control

CCCC1=CC(C)(C)CC(C)=C1 (tested in a mixture with another compound)
inactive: [6] 98 % of control | [1] 96 % of control | [2] 102 % of control | [3] 100 % of control | [4] 100 % of control

CCCCC(=O)n1c(Cl)c(/C=N\NC(N)=S)c2ccccc21
inactive: endpoint: mean survival time, dose: 25.0 mg/kg/injection, schedule: Q04DX003 (ip), vehicle: saline with Tween-80 101 % of control | endpoint: mean survival time, dose: 50.0 mg/kg/injection, schedule: Q04DX003 (ip), vehicle: saline with Tween-80 101 % of control | [2] 108 % of control

CCCCCC(=O)COCC
inactive: [2] 103 % of control | [4] 91 % of control | [5] 103 % of control

CN(C=O)c1ccc(C(=O)NC(CCC(=O)OCc2ccccc2)C(=O)OCc2ccccc2)cc1 (stereo not drawn)
inactive: [1] 94 % of control | [2] 105 % of control | [3] 89 % of control | [4] 92 % of control | [7] 89 % of control | [5] 89 % of control

Cc1cc(=O)[nH]c2c1c(C#N)cn2C1CCCCC1
inactive: endpoint: mean survival time, dose: 100.0 mg/kg/injection, schedule: Q04DX003 (ip), vehicle: saline 101 % of control | endpoint: mean survival time, dose: 200.0 mg/kg/injection, schedule: Q04DX003 (ip), vehicle: saline 89 % of control | endpoint: mean survival time, dose: 400.0 mg/kg/injection, schedule: Q04DX003 (ip), vehicle: saline 93 % of control

C=CCCCCCCCCC(=O)NN1CCOCC1
inactive: [1] 94 % of control | [3] 91 % of control | [7] 94 % of control

Cc1cc(C=O)c(C)n1-c1ccc(C(=O)O)cc1
inactive: [6] 101 % of control | [1] 93 % of control | [3] 101 % of control

CC(C)Oc1ccc(N2C(=O)C(C)CNC2=S)cc1 (stereo not drawn)
inactive: endpoint: mean survival time, dose: 75.0 mg/kg/injection, schedule: Q01DX001 (ip), vehicle: other 96 % of control | endpoint: mean survival time, dose: 150.0 mg/kg/injection, schedule: Q01DX001 (ip), vehicle: other 97 % of control | endpoint: mean survival time, dose: 300.0 mg/kg/injection, schedule: Q01DX001 (ip), vehicle: other 96 % of control

Cc1ccc(S(=O)(=O)Nc2ccc([N+](=O)[O-])cc2OS(=O)(=O)c2ccc(C)cc2)cc1
inactive: endpoint: mean survival time, dose: 100.0 mg/kg/injection, schedule: Q04DX003 (ip), vehicle: alcohol 100 % of control | endpoint: mean survival time, dose: 200.0 mg/kg/injection, schedule: Q04DX003 (ip), vehicle: alcohol 95 % of control | endpoint: mean survival time, dose: 400.0 mg/kg/injection, schedule: Q04DX003 (ip), vehicle: alcohol 92 % of control
